Assay results reported in PMC3608532, “Characterization of a Single-Chain Variable Fragment Recognizing a Linear Epitope of Aβ: A Biotechnical Tool for Studies on Alzheimer’s Disease?” (PLoS ONE, 2013).

Key:
Aβ(8-15) = assay: SPR binding kinetics to immobilized Aβ(8-15)
Protocol: Binding kinetics were determined by SPR using a Biacore™ X (GE Healthcare, UK). Synthetic Aβ peptides were dissolved in 10 mM NaAc, pH 4.0. The CM5 sensor chip surface (GE Healthcare, UK) was activated using N-ethyl-N′-3 […] carbodiimide (EDC) and N-hydroxysuccinimide (NHS) chemistry followed by 2-(2-pyridinyldithio)ethaneamine hydrochloride (PDEA), in order to introduce a reactive thiol group. Aβ was coupled via the C-terminal cysteine to the chip at a flow rate of 5 µl/min, and the remaining active groups were blocked by injecting cysteine. The immobilization procedure was performed according to manufacturer’s recommendation. All kinetic analyses were performed at a flow rate of 20 µl/min in PBS. Varying concentrations of scFv-IC16 (10 to 5000 nM) and IC16 (10 to 1000 nM) were injected. […] When required, the surface was regenerated by injecting 20 µl 50 mM glycine, pH 11.0. The data evaluation was performed using Biaevaluation Software 4.1.1. ScFv-IC16 data were fitted according to the Langmuir 1∶1 binding model, whereas IC16 data were fitted according to the bivalent binding model. Standard errors of equilibrium dissociation constants (KD) were calculated using standard errors of the corresponding association and dissociation rate constants.

Aβ(1-10) = assay: ELISA binding to Aβ(1-10) peptides; details: 60 ng/well, 100% C-terminally biotinylated Aβ1-10; p = 0.19 versus N-bio oligomers
Protocol: An ELISA was applied to characterize the binding affinity of scFv-IC16 to different Aβ conformers. After concentration determination of the Aβ(1-42) monomer, oligomer and fibril preparations, each conformer was diluted in immobilization buffer (0.1 M NaHCO3, pH 9.3) to a concentration of 5 µg/ml, and coated on Nunc immobilizer streptavidin F96 clear plates (250 ng/well) (Nunc, Thermo Scientific, Waltham, MA, USA). Alternatively, Aβ monomers were prepared seedless in the same concentration by dissolving 50 µg N-terminally biotinylated Aβ(1-42) in 1 ml immobilization buffer and diluting it further to 5 µg/ml. N- or C-terminally biotinylated Aβ(1-10) peptides were dissolved in immobilization buffer to a final concentration of 1.2 µg/ml (60 ng/well). 50 µl of these Aβ solutions were incubated in the well for 1 h. Each well was washed with 100 µl immobilization buffer and the plate was stored at 4°C overnight in 100 µl immobilization buffer per well. Unspecific binding sites were blocked with 50 µl blocking buffer (PBS, 1% BSA) at room temperature for 1 h. […] The reaction was terminated by adding sulfuric acid to a final concentration of 1 M. The absorbance was recorded at 450 nm on Polarstar Optima plate reader (BMG, Ortenberg, Germany).

scFv-IC16: single-chain variable fragment (VH-(Gly4Ser)3-VL, His6- and Myc-tag) derived from Aβ binding monoclonal antibody IC16, expressed in E. coli
interaction with Aβ(8-15) (Aβ(8-15)): No interaction | ELISA binding to Aβ(1-10), C-terminal biotin tag (Aβ(1-10)): very similar to Aβ oligomers
